Measurements reported in PMC6429459, “The HslV Protease from Leishmania major and Its Activation by C-terminal HslU Peptides” (International Journal of Molecular Sciences, 2019).
* marks the point of attachment. AMC = Cc1cc(=O)oc2cc(N*)ccc12; Cbz = O=C(OCc1ccccc1)*

Columns and labels:
[1] = molecular target: HslV from E. coli (EcHslV) (Escherichia coli, UniProt P0A7B8); conditions: compared with Z-GGL-AMC; in words
Source text: A further improvement to our assays was the development of a novel fluorogenic peptide substrate, which was more convenient to use than Z-GGL-AMC. Indeed, although the substrate Z-GGL-AMC mostly used in the literature for the studies of HslV has proven useful, its use is limited by its poor solubility in aqueous solutions [6, 36]. In view of finding alternative substrates for LmHslV, we tested a variety of possible fluorogenic substrates (commercial or home-made) including Suc-LLVY-AMC, a classical substrate used for the eukaryotic proteasome, in the presence of the reference activator peptide LmC12-U2.

LmHslV = assay: Degradation of fluorogenic substrates by LmC12-U2-activated LmHslV; assay type: biochemical, Leishmania major; conditions: LmHslV 75.2 nM, 37 °C, substrate 100 μM, activating peptide LmC12-U2 500 μM; Figure 2; in words
Protocol: Activity assay: The peptidase activity of recombinant LmHslV was assessed by measuring the fluorescence of AMC released after hydrolysis of the fluorogenic substrates Z-GGL-AMC or JMV4482 (Z-EVNL-AMC), 100 µM. LmHslV activation was obtained by addition of activating peptides (see type and concentration in the figure legends). Activity buffer: 25 mM Tris-HCl pH 8.0, 1 mM DTT, 0.5 mM EDTA and 5 mM MgCl2. Most of the experiments were performed in a final volume of 50 µL in black 96-well microplates (Fisher Scientific, Illkirch, France. Fluorescence was measured using a spectrofluorimeter (BIO-TEK Instrument, Inc., Winooski, VT, USA): filters 360/340 for excitation and 460/440 for emission.
Figure 2 Degradation of different fluorogenic substrates by LmHslV. LmHslV (75.2 nM) was incubated at 37 °C with different fluorogenic substrates (100 μM) in the presence of the activating peptide LmC12-U2 (500 μM). The fluorescence of the free AMC group, proportional to the activity of the sample, was measured at 2 min. intervals. With each substrate, no activity was measured in the absence of activating peptide: for the sake of clarity, only the negative control values obtained with the substrate ZGGL-AMC are shown.

[2] = Solubility in aqueous assay solutions (observation); conditions: aqueous assay conditions, peptide concentrations in the millimolar range; in words

HslV from E. coli (EcHslV), sequence (P0A7B8 2-176): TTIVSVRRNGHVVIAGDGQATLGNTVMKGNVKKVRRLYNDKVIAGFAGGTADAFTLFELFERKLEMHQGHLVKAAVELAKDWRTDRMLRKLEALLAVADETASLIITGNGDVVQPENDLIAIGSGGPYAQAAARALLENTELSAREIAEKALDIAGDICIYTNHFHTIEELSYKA

Substance	Degradation of fluorogenic substrate by EcHslV [1]	Degradation of fluorogenic substrate by activated LmHslV (LmHslV)	Solubility of activating peptide [2]
Cbz-EVNL-{AMC} (SMILES Cc1cc(=O)oc2cc(NC(=O)[C@H](CC(C)C)NC(=O)[C@H](CC(N)=O)NC(=O)[C@@H](NC(=O)[C@H](CCC(=O)O)NC(=O)OCc3ccccc3)C(C)C)ccc12) [Z-EVNL-AMC]	more efficiently degraded by HslV from E. coli (EcHslV) than Z-GGL-AMC	more efficiently degraded by LmHslV than Z-GGL-AMC and Suc-LLVY-AMC	
H-VNLAKYLL-OH [Compound 3]			not soluble enough for reliable results
